Source: paper PMC7180452, “Purine and Purine Isostere Derivatives of Ferrocene: An Evaluation of ADME, Antitumor and Electrochemical Properties” (Molecules, 2020)

How the values were obtained:
[1] = test system: metastatic colorectal adenocarcinoma (SW620); assay: In vitro antiproliferative activity, SW620; type: cell-based, human; details: SW620 cells
Protocol: (§1) Antiproliferative activity of compounds 11a−11c, 12a−12c, 13a−13c, 14a−14c, 15a−15c, 16a, 23a−23c, 24a−24c, 25a−25c, 34a−34c and 35a−35c was evaluated in vitro on four human tumor cell lines (American Type Culture Collection, Manassas, VA, USA): metastatic colorectal adenocarcinoma (SW620), ductal pancreatic adenocarcinoma (CFPAC-1), hepatocellular carcinoma (HepG2) and cervical carcinoma (HeLa) as well as normal skin fibroblasts (HFF).

[2] = test system: ductal pancreatic adenocarcinoma (CFPAC-1); assay: In vitro antiproliferative activity, CFPAC-1; type: cell-based, human; details: CFPAC-1 cells
Protocol: as §1

[3] = test system: hepatocellular carcinoma (HepG2); assay: In vitro antiproliferative activity, HepG2; type: cell-based, human; details: HepG2 cells
Protocol: as §1

[4] = test system: cervical carcinoma (HeLa); assay: In vitro antiproliferative activity, HeLa; type: cell-based, human; details: HeLa cells
Protocol: as §1

[5] = test system: normal skin fibroblasts (HFF); assay: Cytotoxicity on non-tumor cells, HFF; type: cell-based, human
Protocol: as §1

[6] = Turbidimetric kinetic solubility assay; details: PBS, 1% DMSO, 37 °C, 2 h, estimated range
Protocol: The turbidimetric solubility assay, which allows a rapid determination of the kinetic solubility of newly synthesized compounds using small amounts of their DMSO solutions, was used to assess the kinetic solubility [38].
The compounds’ DMSO stock solutions in concentration of 10 mM were serially diluted by factor 3.3×, 3×, 3.3× and 3× in DMSO. Prepared solutions were spiked into phosphate-buffered saline (PBS, 100 mM) to obtain final compounds’ concentrations of 100, 30, 10, 3 and 1 µM (3 µL of prepared dilutions were spiked to 297 µL of PBS, with final DMSO content of 1%, v/v). All compounds were tested in two replicas per concentration. Prepared solutions were incubated at 37 °C for 2 h with gentle shaking. Blank solutions were also prepared by spiking DMSO in PBS buffer (1% of DMSO, v/v). […] Compound/control samples are compared to the blank solution. […] Results were expressed as an estimated solubility range (lower and upper bound).

[7] = Chrom logD determination (fast-gradient HPLC); details: pH 7.4
Protocol: The distribution coefficient Chrom logD, a parameter used to assess the lipophilicity of compounds [36, 37], was determined for novel purine and purine isosteres with a ferrocene motif as shown in Table 1.
The distribution coefficient, Chrom logD, was determined from compounds’ gradient retention times by employing a high-performance liquid chromatography method with fast acetonitrile gradient. Compounds were prepared for analysis in final concentration of 1.25 mM by dilution of 10 mM stock solutions in DMSO with acetonitrile. Aqueous mobile phase was 50 mM ammonium acetate adjusted with ammonia solution to pH 7.4 and the organic mobile phase was acetonitrile. A reversed phase HPLC column Luna C18, 50 × 3 mm i.d., 5 µm particle size (Phenomenex, Torrance, CA, USA) was used for analysis. Sample injection volume was 2 µL and the flow rate was 1 mL min^−1. All compounds were analysed in duplicates. Fast-gradient elution was as follows: from 0 to 100% of acetonitrile (0−3 min), 100% of acetonitrile (3.0−3.5 min), from 100 to 0% of acetonitrile (3.5−3.7 min), and re-equilibration with 100% of aqueous mobile phase (3.7−5.0 min). All measurements were performed on an HPLC-DAD instrument Agilent 1100 Series (Agilent Technologies, Santa Clara, CA, USA) coupled with a mass spectrometer Micromass Quattro API (Waters, MA, USA). MassLynx software, version 4.1 (Waters, Manchester, UK) was used for data acquisition and processing. Before compound analysis, a calibration step was performed. A set of standard compounds with literature CHI values [36] were plotted against gradient retention times to obtain a calibration equation, which was used to determine CHI value from the compounds’ retention times.

SMILES | IC50 [1] | IC50 [2] | IC50 [3] | IC50 [4] | IC50 [5] | Kinetic Solubility [6] | Chrom logD [7]
Nc1nc(Cl)c2c(ncn2Cc2cn(C[c-]3cccc3)nn2)n1.[Fe+2].c1cc[cH-]c1 [Compound 16a, 2-Amino-6-chloro-7-[1-(1-ferrocenymethyl-1,2,3-triazol-4-yl)methyl]-7H-purine] | > 100 µM | > 100 µM | > 100 µM | > 100 µM | 5.3 ± 5.36 µM | <1 µM | 3.37
[Fe+2].c1cc[c-](-c2cn(CCn3cnc4c(N5CCCC5)ncnc43)nn2)c1.c1cc[cH-]c1 [Compound 35b, 6-(Pyrrolidin-1-yl)-9-[2-(4-ferrocenyl-1,2,3-triazol-1-yl)ethyl]-9H-purine] | > 100 µM | > 100 µM | > 100 µM | > 100 µM | > 100 µM | 30 to 100 µM | 3.58
Clc1ncnc2ncn(Cc3cn(-[c-]4cccc4)nn3)c12.[Fe+2].c1cc[cH-]c1 [Compound 15c, 6-Chloro-7-[1-(1-ferrocenyl-1,2,3-triazol-1-yl)methyl]-7H-purine] | 45.5 ± 4.52 µM | 72.2 ± 13.7 µM | 81.7 ± 17.1 µM | 69.2 ± 25.5 µM | 29.6 ± 4.28 µM | >100 µM | 3.68
Nc1nc(Cl)c2ncn(Cc3cn(C[c-]4cccc4)nn3)c2n1.[Fe+2].c1cc[cH-]c1 [Compound 14a, 2-Amino-6-chloro-9-[1-(1-ferrocenymethyl-1,2,3-triazol-4-yl)methyl]-9H-purine] | 60.2 ± 24.4 µM | 49.5 ± 5.03 µM | 60.1 ± 5.73 µM | 71.4 ± 16.1 µM | > 100 µM | 30 to 100 µM | 3.62
[Fe+2].c1cc[c-](-c2cn(CCn3ccc4c(N5CCCC5)ncnc43)nn2)c1.c1cc[cH-]c1 [Compound 34b, 4-(Pyrrolidin-1-yl)-7-[2-(4-ferrocenyl-1,2,3-triazol-1-yl)ethyl]-7H-pyrrolo[2,3-d]pyrimidine] | > 100 µM | > 100 µM | > 100 µM | > 100 µM | > 100 µM | 10 to 30 µM | 4.30
Clc1ncnc2c1ccn2CCn1cc(-[c-]2cccc2)nn1.[Fe+2].c1cc[cH-]c1 [Compound 34a, 4-Chloro-7-(2-(4-ferrocenyl-1,2,3-triazol-1-yl)ethyl)-7H-pyrrolo[2,3-d]pyrimidine] | > 100 µM | > 100 µM | > 100 µM | > 100 µM | > 100 µM | 10 to 30 µM | 4.92
Clc1ncnc2c1ncn2CCn1cc(-[c-]2cccc2)nn1.[Fe+2].c1cc[cH-]c1 [Compound 35a, 6-Chloro-9-[2-(4-ferrocenyl-1,2,3-triazol-1-yl)ethyl]-9H-purine] | 78.2 ± 5.69 µM | 65.3 ± 6.23 µM | 48.1 ± 7.85 µM | 63 ± 6.06 µM | 6 ± 2.99 µM | 10 to 30 µM | 3.70
[Fe+2].c1cc[c-](-c2cn(CCn3ccc4c(N5CCCCC5)ncnc43)nn2)c1.c1cc[cH-]c1 [Compound 34c, 4-(Piperidin-1-yl)-7-[2-(4-ferrocenyl-1,2,3-triazol-1-yl)ethyl]-7H-pyrrolo[2,3-d]pyrimidine] | 57.6 ± 6.55 µM | 45.8 ± 9.11 µM | 57.6 ± 13.8 µM | 71.1 ± 15.9 µM | 20.2 ± 1.54 µM | 10 to 30 µM | 5.49
CC([c-]1cccc1)n1cc(Cn2cnc3c(Cl)nc(N)nc32)nn1.[Fe+2].c1cc[cH-]c1 (stereo not shown) [Compound 14b, 2-Amino-6-chloro-9-[1-(1-ferrocenyl-1-methylmethyl-1,2,3-triazol-4-yl)methyl]-9H-purine] | 98.7 ± 19.7 µM | 67.4 ± 9.12 µM | 77.1 ± 5.92 µM | > 100 µM | 11.5 ± 5.09 µM | 30 to 100 µM | 3.90
[Fe+2].c1cc[c-](-c2cn(CCn3cnc4c(N5CCCCC5)ncnc43)nn2)c1.c1cc[cH-]c1 [Compound 35c, 6-(Piperidin-1-yl)-9-[2-(4-ferrocenyl-1,2,3-triazol-1-yl)ethyl]-9H-purine] | > 100 µM | > 100 µM | > 100 µM | > 100 µM | 6.83 ± 2.17 µM | 10 to 30 µM | 5.02
CC([c-]1cccc1)n1cc(Cn2cnc3c(Cl)ncnc32)nn1.[Fe+2].c1cc[cH-]c1 (stereo not shown) [Compound 13b, 6-Chloro-9-[1-(1-ferrocenyl-1-methylmethyl-1,2,3-triazol-4-yl)methyl]-9H-purine] | 36.6 ± 3.42 µM | 43.8 ± 10.9 µM | 38.8 ± 10.1 µM | 40.3 ± 4.52 µM | 6.79 ± 1.06 µM | 30 to 100 µM | 4.64
CC([c-]1cccc1)n1cc(Cn2cnc3c(N)ncnc32)nn1.[Fe+2].c1cc[cH-]c1 (stereo not shown) [Compound 12b, 6-Amino-9-[1-(1-ferrocenyl-1-methylmethyl-1,2,3-triazol-4-yl)methyl]-9H-purine] | 75 ± 8.93 µM | 70.2 ± 6.5 µM | 68.6 ± 9.15 µM | 76.4 ± 3.41 µM | 18.4 ± 2.64 µM | >100 µM | 3.09
Nc1ncnc2c1ncn2Cc1cn(-[c-]2cccc2)nn1.[Fe+2].c1cc[cH-]c1 [Compound 12c, 6-Amino-9-[1-(1-ferrocenyl-1,2,3-triazol-1-yl)methyl]-9H-purine] | > 100 µM | > 100 µM | > 100 µM | > 100 µM | 54.5 ± 4.96 µM | 3 to 10 µM | 2.64
Clc1ncnc2c1ncn2Cc1cn(-[c-]2cccc2)nn1.[Fe+2].c1cc[cH-]c1 [Compound 13c, 6-Chloro-9-[1-(1-ferrocenyl-1,2,3-triazol-1-yl)methyl]-9H-purine] | 51.8 ± 1.9 µM | 54.7 ± 5.13 µM | 54.7 ± 3.21 µM | 46.8 ± 6.72 µM | 6.77 ± 2.78 µM | >100 µM | 4.19
Nc1nc(Cl)c2ncn(Cc3cn(-[c-]4cccc4)nn3)c2n1.[Fe+2].c1cc[cH-]c1 [Compound 14c, 2-Amino-6-chloro-9-[1-(1-ferrocenyl-1,2,3-triazol-1-yl)methyl]-9H-purine] | 81.3 ± 1.23 µM | 90.5 ± 1.83 µM | > 100 µM | > 100 µM | 24.6 ± 4.45 µM | <1 µM | 3.50
Nc1ncnc2c1ncn2Cc1cn(C[c-]2cccc2)nn1.[Fe+2].c1cc[cH-]c1 [Compound 12a, 6-Amino-9-[1-(1-ferrocenymethyl-1,2,3-triazol-4-yl)methyl]-9H-purine] | > 100 µM | > 100 µM | > 100 µM | > 100 µM | 56.6 ± 15.6 µM | 30 to 100 µM | 2.85
